pIC50: −log10 of the molar value.
Test system: P388
Test: Cytotoxicity against mouse P388 cells
Format: functional, cell-based

Row | SMILES | pIC50
1 | C/C=C/[C@@H]1OC(=O)C=C[C@@H]1O [PHOMALACTONE] | 4.39
2 | CC(=O)Cc1cc(O)c(C)c(O)c1C=O | 4.71
3 | Cc1cc(O)c(C)c(O)c1C=O | 3.90
4 | CC(C)C[C@@H]1NC(=O)[C@H](CC(C)C)NC(=O)[C@@H](C)NC(=O)[C@H](C(C)C)NC(=O)[C@@H](CC(C)C)NC1=O [CHRYSOSPORIDE] | 4.48

From ChEMBL document CHEMBL1158085, “Chrysosporide, a cyclic pentapeptide from a New Zealand sample of the fungus Sepedonium chrysospermum” (J Nat Prod, 2006)
